Earlier results in patent US5639739A, “Imidazole containing aminoboronic acids” (The DuPont Merck Pharmaceutical Company, priority 1995, dated 1997).
Values belong to the molecule of their own block, whether it stands above or below them.

Assays:
[1] = target: chymotrypsin (Bos taurus, UniProt P00766); conditions: Matteson et al. 1981
[2] = target: thrombin; conditions: literature values
[3] = target: human thrombin (Homo sapiens, UniProt P00734)

Ki [1]: 4000 nM
Compound: CC(=O)N[C@@H](Cc1ccccc1)B(O)O [Acborophe-OH, R-1-acetamido-2-phenylethane boronic acid]

Ki [2]: 700 nM
Compound: N#CC(CCCNC(=N)N)NC(=O)[C@@H]1CCCN1C(=O)[C@H](N)Cc1ccccc1 (stereo partly drawn) [D-phenylalanyl-prolyl-NHCH((CH2)3 NHC(=NH)NH2)--CN]

Ki ([3]; human thrombin, literature values): 75 nM
Compound: N=C(N)NCCC[C@@H](C=O)NC(=O)[C@@H]1CCCN1C(=O)[C@H](N)Cc1ccccc1 [D-phenylalanyl-prolyl-arginal]

kind of inhibition of human thrombin ([3]; Kettner and Shaw 1979): selective but irreversible inhibitor
Compound: N=C(N)NCCC[C@H](NC(=O)[C@@H]1CCCN1C(=O)[C@H](N)Cc1ccccc1)C(=O)CCl [H-(D) Phe-Pro-ArgCH2 Cl]
